Reference: publication PMC5024137 (Scientific Reports, 2016)

Columns and labels:
hOATP2B1 [1] = molecular target: T1, hOATP2B1 (Homo sapiens, UniProt O94956); assay: Cellular uptake assay: intracellular accumulation in HEK293-hOATP2B1 vs HEK293-MOCK cells (HPLC-MS/MS); settings: 0.25 μM, HBSS pH7.4, 37 °C, 20 min
T1 sequence (O94956 1-709): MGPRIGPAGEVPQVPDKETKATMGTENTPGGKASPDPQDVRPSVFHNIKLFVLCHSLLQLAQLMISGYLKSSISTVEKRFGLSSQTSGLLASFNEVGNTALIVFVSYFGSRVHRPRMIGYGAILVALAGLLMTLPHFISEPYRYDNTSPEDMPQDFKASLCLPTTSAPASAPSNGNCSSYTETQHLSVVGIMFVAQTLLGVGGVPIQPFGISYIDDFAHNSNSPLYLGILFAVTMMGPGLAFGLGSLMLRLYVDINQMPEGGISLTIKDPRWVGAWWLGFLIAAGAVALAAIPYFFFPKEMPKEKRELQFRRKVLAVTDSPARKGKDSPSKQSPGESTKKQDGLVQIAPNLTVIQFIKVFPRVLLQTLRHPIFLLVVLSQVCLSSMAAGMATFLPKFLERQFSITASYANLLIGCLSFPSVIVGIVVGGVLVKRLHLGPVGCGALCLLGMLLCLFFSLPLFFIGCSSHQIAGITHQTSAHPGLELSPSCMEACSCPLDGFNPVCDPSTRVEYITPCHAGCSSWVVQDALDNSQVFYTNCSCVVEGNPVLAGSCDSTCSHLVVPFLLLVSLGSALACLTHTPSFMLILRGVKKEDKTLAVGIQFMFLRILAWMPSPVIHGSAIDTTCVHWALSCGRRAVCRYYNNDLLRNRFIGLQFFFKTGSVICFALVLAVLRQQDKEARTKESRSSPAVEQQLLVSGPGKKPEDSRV

hOATP2B1 [2] = molecular target: T1, hOATP2B1; assay: pH dependent uptake of morphine and M6G in HEK293-hOATP2B1 cells; settings: 0.25 μM, HBSS, 37 °C, 20 min
[3] = substrate: CN1CC[C@]23c4c5ccc(O)c4O[C@H]2[C@@H](O[C@@H]2O[C@H](C(=O)O)[C@@H](O)[C@H](O)[C@H]2O)C=C[C@H]3[C@H]1C5; assay: cells, lysate or membranes named; settings: other: HEK293-hOATP2B1 cells, 0.25 to 100 μM, pH7.4, 37 °C, 20 min, pH 7.4
Description: V is the initial uptake rate of the substrate (pmol/min/mg protein), S is the substrate concentration in the medium (μM) and Pdif is the uptake clearance corresponding to the passive diffusion and nonspecific binding to the cell surface. Unpaired two-side Student’s t-test was applied for comparisons of two groups’ data. A P value < 0.05 was considered statistically significant.

## C[C@]12CC[C@@H]3c4ccc(OS(=O)(=O)[O-])cc4CC[C@H]3[C@@H]1CCC2=O.[Na+] [E-3-S, estrone-3-sulfate sodium salt]
hOATP2B1 [1]
  increase of intracellular accumulation in HEK293-hOATP2B1 compared to HEK293-MOCK: 2 to 3 fold

## CN1CC[C@]23c4c5ccc(O[C@@H]6O[C@H](C(=O)O)[C@@H](O)[C@H](O)[C@H]6O)c4O[C@H]2[C@@H](O)C=C[C@H]3[C@H]1C5 [M3G, morphine-3-glucuronide]
hOATP2B1 [1]
  increase of intracellular accumulation in HEK293-hOATP2B1 compared to HEK293-MOCK: didn’t show any differences

## CN1CC[C@]23c4c5ccc(O)c4O[C@H]2[C@@H](O[C@@H]2O[C@H](C(=O)O)[C@@H](O)[C@H](O)[C@H]2O)C=C[C@H]3[C@H]1C5 [M6G, morphine-6-glucuronide]
hOATP2B1 [2]
  concentration in HEK293-hOATP2B1 cells at pH6.0 relative to pH7.4: 2.05 fold
hOATP2B1 [1]
  increase of intracellular accumulation in HEK293-hOATP2B1 compared to HEK293-MOCK: more than 2 fold
hOATP2B1 [1]; HEK293-MOCK cells
  intracellular accumulation: 0.26 nM
hOATP2B1 [1]; HEK293-hOATP2B1 cells
  intracellular accumulation: 0.71 nM

## CC(C)n1c(/C=C/C(O)CC(O)CC(=O)O)c(-c2ccc(F)cc2)c2ccccc21 (centres unmarked) [fluvastatin]
hOATP2B1 [1]
  increase of intracellular accumulation in HEK293-hOATP2B1 compared to HEK293-MOCK: 2 to 3 fold

B1: hOATP2B1 (Homo sapiens) (protein)
chain: T1 sequence (O94956 1-709)
[3]
  Km: 80.31 ± 21.75 µM
